Reference: patent US6265423A, “Aromatic polycyclic retinoid-type derivatives, method for preparing same, and use thereof for making pharmaceutical and cosmetic compositions” (priority 1996, dated 2001)
Entries after “also recorded” stand apart in the source; their conditions may differ.

What was measured:
[1] = test system: A549 human pulmonary cancer cells; assay: MTT test, proliferation of A549; assay type: cell-based; settings: for activity at 100 µM / activity at 1 µM / activity at 0.01 µM: Homo sapiens, 72 h, control = 100%, read-out: level of proliferation; for activity at 100 µM: A549, 10^-4 M; for activity at 1 µM: A549, 10^-6 M; for activity at 0.01 µM: A549, 10^-8 M; for effect on cellular increase, A549 (in words): MTT test
[2] = test system: RAR-ERcassettes (RARα, RARβ, RARγ); assay: Chimerical receptors RAR-ERcassettes, overall profile; assay type: cell-based
Procedure, shortened: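 Chimeric RAR-ERcassette receptors (AF-1/AF-2 retained, ER DNA-binding domain) drive ERE-controlled luciferase in HeLa cells, with β-galactosidase normalising transfection. Cells, transfected by calcium phosphate co-precipitation, received test effectors for 16 h starting 24 h after transfection.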

[3] = test system: RARE, endogenic RAR and RXR receptors, HRL+N lineage; assay: HRL+N transactivation (RARE-luciferase, stably transfected HeLa); assay type: cell-based; settings: for Emax: Homo sapiens, HeLa, read-out: HRL+N transactivation, E max (Table 27)
Method: MCF-7 cells and HeLa are cultivated in DMFM with phenol red to which 5% foetal calf serum is added. The T47-D cells are cultivated in RPMI to which 10% foetal calf serum is added. The experimental tests are carried out in DMEM without phenol red to which foetal calf serum treated with dextran carbon is added at 3%. […] The experiments using the different retinoids are carried out sheltered from the light so as to avoid any isomerisation.
Certain properties of the retinoids have been determined using more developed cellular models. These models consist of cellular lineages transfected in a stable fashion by recombinant plasmids which place the expression of the gene of the luciferase under the control of different nuclear response elements. […] The tests carried out in duplicate are described below for each of these models.
The cellular lineages HRLN and HRL+N allow one to study the activation of an RARE by endogenic receptors using ligands at physiological concentrations. These lineages derive from HeLa cells transfected in a stable fashion by a reporter gene which places the expression of the gene of the luciferase under the control of a nuclear response element RARE (RARE3 -tk-Luc). The HeLa cells express all the known receptors of the retinoic acid (RARα,β,γ and RXRα,β,γ) with a predominance of RARα and RXRα. The response element RARE used for the HRLN cells corresponds to the sequence of the natural gene of the RARβ receptor (GGTTCAnnnnnAGTTCA). The HRL+N cells comprise the sequence GAGTGAnnnnnCGGTGA.
The HRL+N lineage allows one to visualise a co-activation of the RAR and RXR receptors at the level of the RAR-RXR hetero-dimer.

[4] = test system: Gal4-RARβ; assay: Transactivation, chimerical receptor Gal4-RARβ (transitory transfection of HeLa); assay type: cell-based; settings: 10^-6 M; 100% = TTNPB 10^-8 M
[5] = test system: RAR and RXR receptors; assay: RAR/RXR activity profile drawn from the models; assay type: cell-based
[6] = test system: Gal4-RARγ; assay: Transactivation, chimerical receptor Gal4-RARγ (transitory transfection of HeLa); assay type: cell-based; settings: 10^-6 M; 100% = TTNPB 10^-8 M
[7] = test system: ZR-75-1 human mammary cancer cells; assay: MTT test, proliferation of ZR-75-1; assay type: cell-based; settings: for activity at 100 µM / activity at 1 µM / activity at 0.01 µM: Homo sapiens, 72 h, control = 100%, read-out: level of proliferation; for activity at 100 µM: ZR-75-1, 10^-4 M; for activity at 1 µM: ZR-75-1, 10^-6 M; for activity at 0.01 µM: ZR-75-1, 10^-8 M; for effect on cellular increase, ZR-75-1 (in words): MTT test
Procedure, shortened: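 Cells grown at 37° C in MEM/5% FCS were plated for 24 h, then treated at 10^-8, 10^-6 or 10^-4 M. Each condition was run in 6 duplicates.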

[8] = test system: ZR-75-1, T-47D, A549 and A-427 lineages; assay: MTT test, tumour cell lines overall; assay type: cell-based, human
Method: This test is based on the mitochondrial reduction by living metabolically active cells of the MTT (3-(4,5-dimethylthiazol-2-yl)-2,5-diphenyltetrazolium bromide) of yellowish colour into a blue coloured product, formazan. The quantity of formazan obtained is directly proportional to the number of living cells. After incubation of the cells for 24 hours in microplates with 96 flat bottomed wells, the culture medium is replaced by 100 μl of fresh culture medium containing the drug to be tested.
The microplates are then incubated for 3 hours at 37° C. and centrifuged for 10 minutes at 400 g (GPR centrifuge, Beckman). The MTT solution is replaced by 100 μl of dimethylsulphoxide (Merck). The microplates are agitated (Vari-Shaker, Dynatech) for 10 minutes.
In the microplates, the control cells like the treated cells were incubated in a medium without the compounds to be tested for 24 hours. The control cells are incubated in a medium without a drug throughout the whole experiment, while the treated cells are incubated in different media. These media contain the molecule to be tested at various concentrations: 10^-8 M, 10^-6 M and 10^-4 M. All the tests are carried out in 6 duplicates.

| SMILES | activity at 100 µM [1] | activity at 1 µM [1] | activity at 0.01 µM [1] | effect on cellular increase, A549 (in words) [1] | RAR-ERcassette profile (in words) [2] | HRL+N transactivation (in words) [3] | Emax [3] | GAL4-RAR RARβ transactivation [4] | RAR/RXR activity profile (in words) [5] | GAL4-RAR RARγ transactivation [6] | activity at 100 µM [7] | activity at 1 µM [7] | activity at 0.01 µM [7] | inhibition of the cellular lineages (in words) [8] | effect on cellular increase, ZR-75-1 (in words) [7] |
| --- | --- | --- | --- | --- | --- | --- | --- | --- | --- | --- | --- | --- | --- | --- | --- |
| CC1(C)CCC(C)(C)c2cc(/C=C(\c3ccc(-c4nnn[nH]4)cc3)C(F)(F)F)ccc21 [CB77402, (E) 5-[4-[1-trifluoromethyl-2-(5,6,7,8-tetrahydro-5,5,8,8-tetramethyl-2-naphthalenyl)-1-ethenyl]phenyl]-1H-tetrazole] | 10.7% | 86% | 93.1% | show activity on the increase of these two lineages | do not permit transactivation mediated by RARα-ERcassette and RARγ-cassette. However, a partial transactivation of RARβ-ERcassette is observed; also recorded: with a specific RAR agonist permits an over-activation of the effect of the RAR molecule alone for the three RAR-ERcassette receptors | weak transactivation, less than that of TTNPB; also recorded: with a specific RAR agonist induces a stronger transactivation than that observed for each compound tested separately | 33% | 0% | RXR specific activity | 0% | 7.5% | 96.6% | 99.9% | – | – |
| C/C(=C/c1ccc2c(c1)C(C)(C)CCC2(C)C)c1ccc(-c2nnn[nH]2)cc1 [CB92834] | 14.4% | 109% | 105% | show activity on the increase of these two lineages | do not permit transactivation mediated by RARα-ERcassette and RARγ-cassette. However, a partial transactivation of RARβ-ERcassette is observed; also recorded: with a specific RAR agonist permits an over-activation of the effect of the RAR molecule alone for the three RAR-ERcassette receptors | weak transactivation, less than that of TTNPB; also recorded: with a specific RAR agonist induces a stronger transactivation than that observed for each compound tested separately; also recorded: over-activation by CB92834 of the transactivation induced by a selective RAR agonist on the HRL+N lineage | 42% | 0% | RXR specific activity | 2% | 18.7% | 39.9% | 27.9% | as active on the MTT test as the reference products tested; also recorded: more active on the oestrogen-sensitive lineages such as the mammary lineages ZR-75-1 and T-47D than on the pulmonary lineages | strongly inhibitive activity on the cellular increase of the two lineages |
| C/C(=C\c1ccc(C(=O)O)cc1)c1ccc2c(c1)C(C)(C)CCC2(C)C [TTNPB, reference compound] | – | – | – | – | – | – | – | – | – | – | 15.7% | 69.8% | 60.6% | induces the strongest inhibition of the cellular lineages | inhibit the cellular increase of the two mammary lineages at the concentrations tested |
